Measurements taken from patent US20080274883A1, “Fungicidal Mixtures” (BASF AKTIENGESELLSCHAFT, priority 2004, published 2008).

Key:
Phytophthora infestans = assay type: in vivo, Phytophthora infestans on potted tomato plants; settings: 1 ppm; protective spray on tomato leaves, infested next day, rated after 6 days; efficiency by Abbot's formula vs untreated control (90% infestation)
[1] = tested on: Erysiphe [syn. Blumeria] graminis form a specialis. tritici; assay: Efficacy against wheat mildew caused by Erysiphe [syn. Blumeria] graminis forma specialis tritici; assay type: in vivo; settings: wheat seedlings sprayed, dusted with spores 24 hours later, rated after 7 days, untreated control 90% infestation

Structure (SMILES)	Observed action (%) (Phytophthora infestans)	Observed action (%) ([1]; 4 ppm)	Observed action (%) ([1]; 16 ppm)
COc1ccc(C(=CC(=O)N2CCOCC2)c2ccc(Cl)cc2)cc1OC [dimethomorph (II), 3-(4-chlorophenyl)-3-(3,4-dimethoxyphenyl)-1-morpholin-4-ylpropenone]	22	0	
CO/C=C(/C(=O)OC)c1ccccc1CO/N=C(C)/C=C/c1ccc(Cl)cc1 [enestrobin (I), methyl 2-(2-[3-(4-chlorophenyl)-1-methyl-allylidenaminooxymethyl]phenyl)-3-methoxyacrylate]	0		33
COc1ccc(C(=CC(=O)N2CCOCC2)c2ccc(F)cc2)cc1OC [flumorph (IIA), 4-[3-(3,4-dimethoxyphenyl)-3-(4-fluorophenyl)-1-oxo-2-propenyl]morpholine]		0	
